Source: patent US10201530B2, “Treatment of BRCA1-defective cancer or resistant cancers” (City of Hope, priority 2014, dated 2019)
Where two headings read alike, the source gives them in different places.

Key:
[1] = tested on: PARP1 protein; assay: PARP1 protein level by Western blot; type: cell-based, human; conditions: HCC1937 cells irrespective of BRCA1 status, 4 h treatment
Method: For subcellular fractionation, cells were trypsinized and washed with cold PBS solution twice. […] Following centrifugation at 1,000 g for 5 min, the supernatant was collected (i.e., cytoplasmic fraction) and pellets were washed with the same buffer twice. The washed samples were extracted for 40 min on ice with fractionation buffer containing 0.5% NP-40 for nuclear fraction. All the samples were sonicated and clarified by centrifugation at 16,000 g for 15 min. Protein concentrations of all fractions were determined with Bio-Rad Protein Assay (Bio-Rad Laboratories, Hercules, Calif.). Immunoblotting was performed as described previously (21,22). Briefly, equal amounts of boiled protein samples were subjected to SDS-polyacrylamide gel electrophoresis (PAGE) and transferred onto nitrocellulose membranes (Bio-Rad Laboratories). Membranes were blocked for 1 hour in 3% BSA in Tris buffered saline containing 0.05% Tween 20 (TBST) and incubated for 1 hour with primary antibody (1:500 or 1:1000) diluted in TBST containing 1% BSA. After two washes with TBST, membranes were incubated for 1 hour with horseradish peroxidase-conjugated secondary Abs (1:3000 dilution) at room temperature. The immunoblots were visualized on film with the West-Q chemi-luminescence kit (GenDEPOT, Barker, Tex.).

[2] = tested on: zebrafish embryos; assay: Zebrafish genotoxicity assay; type: in vivo, Danio rerio; conditions: wild-type zebrafish embryos, HU 0-50 mM
Method: Zebrafish (Danio rerio) were obtained from zebrafish Core facility of Taipei Medical University and maintained at 28° C. on a 14 h light/10 h dark cycle. Embryos were incubated at 28° C. and different developmental stages were determined as described (25). Wild-type embryos were treated with different concentrations of HU (0, 5, […], 20, 50 mM) or COH29 (0, 10, 20, 50, 100 μM) at 20 hpf to evaluate the mutagenic effect. Fifteen embryos were treated per well condition. […] Embryos were observed using an Olympus IX70-FLA inverted fluorescence microscope. Images were taken using SPOT digital camera system (Diagnostic Instruments, Sterling Heights, Mich., USA) and assembled with ImageJ software (26).

[3] = tested on: UWB1.289 + BRCA1; assay: Cytotoxicity, UWB1.289+BRCA1 cells; type: cell-based, human; conditions: read-out: IC50, mean ± SEM
Method: (§1) All cell lines were acquired from the American Type Culture Collection (Manassas, Va., USA). Cells were maintained in RPMI 1640 medium (Mediatech) with 10% fetal bovine serum, 2 mM glutamine, and 100 U of penicillin and 100 μg of streptomycin per ml of medium (Sigma) at 37° C. in 5% CO2. To isolate HCC1437+BRCA1 cells, parental HCC1937 cells were transfected with pcDNA3.1 plasmid expressing full-length BRCA1 cDNA. Stable transfectant clones were selected and used for drug sensitivity assays. For stable transfection, cells at 30-40% confluence were incubated overnight with […] of plasmid DNA, using FUGENE® 6 transfectin reagent (Roche Molecular Biochemical, Monza, Italy) according to the manufacturer's instructions. Cells were then selected in puromycin (1 μg/ml) (Invitrogen life Technologies, La Jolla, Calif., USA.) After 20 to 30 days, viable puromycin-resistant colonies from HCC1937 transfections were expanded and screened. The clones that stably expressed […] and retained growth potential were assayed for BRCA1 expression by Western blot analysis. By Western blot analysis, we evaluated the restoration of BRCA1 expression in the puromycin-resistant cDNA/transfectant cells.
(§2) The MTT cytotoxicity assay was performed by incubating with MTT and monitoring the MTT formazan formed by viable cells with a microplate reader at a wavelength of 560 nm; the survival, ratio was determined using the formula: (Atest−Ablank)/(Acontrol−Ablank)×100%. The cytotoxicity was determined in 96-well plates using the semiautomatic fluorescence-based Digital Imaging Microscopy System (DIMSCAN). DIMSCAN uses digital imaging microscopy to quantify viable cells, which selectively accumulate FDA (fluorescein diacetate; Alfa Aesar, Ward Hill, Mass.). DIMSCAN is capable of measuring cytotoxicity over a 4 log dynamic range by quantifying total fluorescence per well (which is proportional to the number of viable cells) after elimination of the background fluorescence by digital thresholding and eosin Y (Mallinckrodt Baker, Center Valley, Pa.) quenching. Cells were seeded into 96-well plates in 100 μL of complete medium at 2,000 to 5,000 cells per well depending on cell line growth rate. After overnight incubation, test compound was added to each well at various concentrations in 50 μL of culture medium. […] Total fluorescence per well was then measured using DIMSCAN, and the results were expressed as the ratio of the fluorescence in treated wells to the fluorescence in untreated wells (survival fraction).

[4] = tested on: KB-7D; assay: Cytotoxicity, KB-7D cells; type: cell-based, human; conditions: cisplatin-resistant, read-out: IC50, mean ± SEM
Method: as §1
(§3) The MTT cytotoxicity assay was performed by incubating with MTT and monitoring the MTT formazan formed by viable cells with a microplate reader at a wavelength of 560 nm; the survival, ratio was determined using the formula: (Atest−Ablank)/(Acontrol−Ablank)×100%. The cytotoxicity was determined in 96-well plates using the semiautomatic fluorescence-based Digital Imaging Microscopy System (DIMSCAN). DIMSCAN uses digital imaging microscopy to quantify viable cells, which selectively accumulate FDA (fluorescein diacetate; Alfa Aesar, Ward Hill, Mass.). DIMSCAN is capable of measuring cytotoxicity over a 4 log dynamic range by quantifying total fluorescence per well (which is proportional to the number of viable cells) after elimination of the background fluorescence by digital thresholding and eosin Y (Mallinckrodt Baker, Center Valley, Pa.) quenching. Cells were seeded into 96-well plates in 100 μL of complete medium at 2,000 to 5,000 cells per well depending on cell line growth rate. After overnight incubation, test compound was added to each well at various concentrations in 50 μL of culture medium. After incubation with the drugs for 96 hours at 37° C., FDA (final concentration: […]) and eosin Y [final concentration: 0.1% (w/v)] were added to each well and the cells were incubated for an additional 20 minutes at 37° C. Total fluorescence per well was then measured using DIMSCAN, and the results were expressed as the ratio of the fluorescence in treated wells to the fluorescence in untreated wells (survival fraction).

[5] = tested on: KB-Gem; assay: Cytotoxicity, KB-Gem cells; type: cell-based, human; conditions: gemcitabine-resistant, read-out: IC50, mean ± SEM
Method: as §1, §3

[6] = tested on: MDA-MB-231; assay: Cytotoxicity, MDA-MB-231 cells; type: cell-based, human
Method: as §1, §3

[7] = tested on: OV90; assay: Cytotoxicity (MTT/DIMSCAN), OV90 cells; type: cell-based, human; conditions: read-out: IC50, mean ± SEM
Method: as §1, §2

[8] = tested on: UWB1.289; assay: Cytotoxicity, UWB1.289 cells; type: cell-based, human; conditions: read-out: IC50, mean ± SEM
Method: as §1, §2

[9] = tested on: A2780-DDDP; assay: Cytotoxicity, A2780-DDDP cells; type: cell-based, human; conditions: cisplatin-resistant ovarian cells, read-out: IC50, mean ± SEM
Method: as §1, §3

[10] = tested on: OVCAR-3; assay: Cytotoxicity, OVCAR-3 cells; type: cell-based, human; conditions: read-out: IC50, mean ± SEM
Method: as §1, §3

[11] = tested on: OVCAR-4; assay: Cytotoxicity, OVCAR-4 cells; type: cell-based, human; conditions: read-out: IC50, mean ± SEM
Method: as §1, §3

[12] = tested on: TOV112D; assay: Cytotoxicity, TOV112D cells; type: cell-based, human; conditions: read-out: IC50, mean ± SEM
Method: as §1, §3

[13] = tested on: A2780; assay: Cytotoxicity, A2780 cells; type: cell-based, human; conditions: A2780, cisplatin-sensitive ovarian cells, read-out: IC50, mean ± SEM
Method: as §1, §3

[14] = tested on: HCC1937 + BRCA1; assay: Cytotoxicity, HCC1937+BRCA1 cells; type: cell-based, human
Method: as §1
(§4) The MTT cytotoxicity assay was performed by incubating with MTT and monitoring the MTT formazan formed by viable cells with a microplate reader at a wavelength of 560 nm; the survival, ratio was determined using the formula: (Atest−Ablank)/(Acontrol−Ablank)×100%. The cytotoxicity was determined in 96-well plates using the semiautomatic fluorescence-based Digital Imaging Microscopy System (DIMSCAN). DIMSCAN uses digital imaging microscopy to quantify viable cells, which selectively accumulate FDA (fluorescein diacetate; Alfa Aesar, Ward Hill, Mass.). DIMSCAN is capable of measuring cytotoxicity over a 4 log dynamic range by quantifying total fluorescence per well (which is proportional to the number of viable cells) after elimination of the background fluorescence by digital thresholding and eosin Y (Mallinckrodt Baker, Center Valley, Pa.) quenching. […]

[15] = tested on: SKBR3; assay: Cytotoxicity, SKBR3 cells; type: cell-based, human
Method: as §1, §4

[16] = tested on: HCC1937; assay: Cytotoxicity, HCC1937 cells; type: cell-based, human
Method: as §1, §4

[17] = tested on: MCF-7; assay: Cytotoxicity, MCF-7 cells; type: cell-based, human
Method: as §1, §4

[18] = Homo sapiens, UWB1289, UWB1.289 + BRCA1
[19] = Homo sapiens, MDA-MB-231, TNBC, read-out: IC50, mean ± SEM
[20] = Homo sapiens, UWB1289, UWB1.289

Structure (SMILES): C[C@]1(c2nc3c(C(N)=O)cccc3[nH]2)CCCN1 [ABT-888]
- effect on PARP1 protein level [1]: significant reduction of PARP1

Structure (SMILES): NC(=O)NO [HU, hydroxyurea]
- developmental defects ([2]; COH29 0-100 μM): caused defects in eyes and heart by 4 dpf
- number of mutant embryos [2]: dose-dependent increase in the number of mutant embryos

Structure (SMILES): Nc1ccn([C@@H]2O[C@H](CO)[C@@H](O)C2(F)F)c(=O)n1 [Gemcitabine]
- IC50 [3, 18]: 42.2 ± 0.62 nM
- IC50 ([4]; Homo sapiens, KB7D): 0.69 ± 0.02 nM
- IC50 ([5]; Homo sapiens): 60 ± 10 nM
- IC50 [6, 19]: 17 ± 1.33 nM
- IC50 ([7]; Homo sapiens, OV-90, OV90): 78.3 ± 11.6 nM
- IC50 [8, 20]: 56.48 ± 0.32 nM
- IC50 ([9]; Homo sapiens): 36.3 ± 0.79 nM
- IC50 ([10]; Homo sapiens): 118 nM
- IC50 ([11]; Homo sapiens): 55.1 ± 3.55 nM
- IC50 ([12]; Homo sapiens): 28.4 ± 4.18 nM
- IC50 ([13]; Homo sapiens): 25.5 ± 1.66 nM

Structure (SMILES): N.N.[Cl][Pt][Cl] [Cisplatin]
- IC50 ([14]; HCC1937 + BRCA1, triple negative, COH29 72 h): 2930 ± 550 nM
- IC50 ([3]; UWB1.289 + BRCA1 (WT), COH29 72 h): 7400 ± 2020 nM
- IC50 [4]: 7500 ± 300 nM
- IC50 ([15]; SKBR3, ER− PR(−) HER2+): 990 ± 240 nM
- IC50 [5]: 380 ± 30 nM
- IC50 ([6]; MDA-MB-231, TNBC, read-out: IC50, mean ± SEM): 3740 ± 210 nM
- IC50 ([7]; OV90, wild-type BRCA1 ovarian cancer cells, COH29 72 h): 1570 ± 290 nM
- IC50 ([8]; UWB1.289, BRCA1-defective ovarian cancer cells, COH29 72 h): 1430 ± 870 nM
- IC50 [9]: 5020 ± 1180 nM
- IC50 [10]: 1640 ± 40 nM
- IC50 ([16]; HCC1937, triple negative, BRCA1 mutant, COH29 72 h): 2460 ± 110 nM
- IC50 [11]: 2250 ± 250 nM
- IC50 [12]: 1320 ± 200 nM
- IC50 [13]: 690 nM
- IC50 ([17]; MCF-7, ER+ PR(+)): 12100 ± 1020 nM

Structure (SMILES): CC(=O)O[C@H]1C(=O)[C@@]2(C)[C@H]([C@H](OC(=O)c3ccccc3)[C@]3(O)C[C@H](OC(=O)[C@H](O)[C@@H](NC(=O)c4ccccc4)c4ccccc4)C(C)=C1C3(C)C)[C@]1(OC(C)=O)CO[C@@H]1C[C@@H]2O [Paclitaxel]
- IC50 ([14]; Homo sapiens, HCC1937 + BRCA1, Table 3 paclitaxel column): 5.4 ± 0.07 nM
- IC50 [3, 18]: 13 ± 1.62 nM
- IC50 ([4]; Homo sapiens, KB7D): 5.17 ± 0.17 nM
- IC50 ([15]; Homo sapiens, SK-BR-3, SKBR3, Table 3 paclitaxel column): 3.37 ± 0.08 nM
- IC50 ([5]; Homo sapiens): 1.95 ± 0.15 nM
- IC50 [6, 19]: 2.01 ± 0.57 nM
- IC50 ([6]; Homo sapiens, MDA-MB-231, Table 3 paclitaxel column, read-out: IC50): 2.01 ± 0.57 nM
- IC50 ([7]; Homo sapiens, OV-90, OV90): 9.09 ± 0.41 nM
- IC50 [8, 20]: 13.9 ± 0.7 nM
- IC50 ([9]; Homo sapiens): 11.4 ± 1.49 nM
- IC50 ([10]; Homo sapiens): 2.89 ± 0.07 nM
- IC50 ([16]; Homo sapiens, HCC1937, Table 3 paclitaxel column): 4.04 ± 0.44 nM
- IC50 ([11]; Homo sapiens): 5.55 ± 0.05 nM
- IC50 ([12]; Homo sapiens): 6.45 ± 1.05 nM
- IC50 ([13]; Homo sapiens): 3.6 ± 1.67 nM
- IC50 ([17]; Homo sapiens, MCF7, MCF-7, Table 3 paclitaxel column): 6.36 ± 1.11 nM
